According to US10525041B2, “Fluoroalkyl-substituted aryltriazole derivatives and uses thereof” (BAYER PHARMA AKTIENGESELLSCHAFT, priority 2016, dated 2020):

Legend:
human V1a receptor = target: T1, human V1a receptor (Homo sapiens, UniProt P37288); test: Cellular in vitro assay for vasopressin receptor activity, V1a cell line (aequorin luminescence); type: cell-based; settings: for IC50: CHO cell line transfected with human V1a receptor, agonist [Arg8]-vasopressin at EC50 concentration, read-out: IC50hV1a; for ratio IC50 hV2/hV1a: ratio of the IC50 on human V2 to the IC50 on human V1a
T1 construct: expressed in transfected cells; host or cells: CHO K1 (ATCC), also stably transfected with a modified aequorin
How it was run: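 CHO K1 cells stably expressing human V1a receptor with aequorin photoprotein, loaded overnight with coelenterazine. Compounds preincubated 10 min at various concentrations, then challenged with [Arg^8]-vasopressin at EC50 concentration. Calcium-driven luminescence read immediately; IC50 values derived.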

human V2 receptor = target: T2, human V2 receptor (Homo sapiens, UniProt P30518); test: Cellular in vitro assay for vasopressin receptor activity, V2 cell line (CRE-luciferase); type: cell-based; settings: CHO cell line transfected with human V2 receptor; agonist [Arg8]-vasopressin at EC50 concentration, 3 hours; read-out: IC50hV2
T2 construct: expressed in transfected cells; host or cells: CHO K1 (ATCC) line expressing firefly luciferase under a CRE-responsive promoter
T2 sequence (P30518 whole entry): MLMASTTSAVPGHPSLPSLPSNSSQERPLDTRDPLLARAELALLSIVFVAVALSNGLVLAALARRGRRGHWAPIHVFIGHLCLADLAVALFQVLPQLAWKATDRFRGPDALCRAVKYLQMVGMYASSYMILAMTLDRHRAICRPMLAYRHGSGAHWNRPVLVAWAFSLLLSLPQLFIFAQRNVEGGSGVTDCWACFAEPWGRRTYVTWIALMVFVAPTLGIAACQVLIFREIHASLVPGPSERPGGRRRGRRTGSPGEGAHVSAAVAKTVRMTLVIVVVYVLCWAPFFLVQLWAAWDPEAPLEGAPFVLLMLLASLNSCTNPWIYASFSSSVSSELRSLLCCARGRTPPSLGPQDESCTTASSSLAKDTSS

T1 sequence (P37288 whole entry): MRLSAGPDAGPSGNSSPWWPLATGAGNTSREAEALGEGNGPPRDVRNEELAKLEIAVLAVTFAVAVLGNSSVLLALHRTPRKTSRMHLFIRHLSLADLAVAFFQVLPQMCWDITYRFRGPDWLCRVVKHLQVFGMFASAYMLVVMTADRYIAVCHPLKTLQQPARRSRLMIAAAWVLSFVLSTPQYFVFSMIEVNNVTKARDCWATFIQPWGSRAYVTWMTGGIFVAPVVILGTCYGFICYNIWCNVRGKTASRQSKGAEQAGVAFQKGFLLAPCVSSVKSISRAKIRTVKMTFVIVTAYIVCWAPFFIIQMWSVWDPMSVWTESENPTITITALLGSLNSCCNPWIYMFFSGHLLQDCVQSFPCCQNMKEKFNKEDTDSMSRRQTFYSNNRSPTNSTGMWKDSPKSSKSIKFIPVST

| SMILES | IC50 (human V1a receptor) [nM] | ratio IC50 hV2/hV1a (human V1a receptor) | IC50 (human V2 receptor) [nM] |
| --- | --- | --- | --- |
| CC(F)c1nc(Cn2nc(-c3ccc(Cl)cc3)n(C[C@H](O)C(F)(F)F)c2=O)nn1-c1ccccc1[N+](=O)[O-] (mixture of isomers) [Example 37, 5-(4-Chlorophenyl)-2-({5-[1-fluoroethyl]-1-(2-nitrophenyl)-1H-1,2,4-triazol-3-yl}methyl)-4-[(2S)-3,3,3-trifluoro-2-hydroxypropyl]-2,4-dihydro-3H-1,2,4-triazol-3-one] | 3.35 | 3.0 | 10 |
| CC(C)c1ccccc1-n1nc(Cn2nc(-c3ccc(Cl)cc3)n(C[C@H](O)C(F)(F)F)c2=O)nc1C(C)(F)F [Example 72, 5-(4-Chlorophenyl)-2-({5-(1,1-difluoroethyl)-1-[2-(propan-2-yl)phenyl]-1H-1,2,4-triazol-3-yl}methyl)-4-[(2S)-3,3,3-trifluoro-2-hydroxypropyl]-2,4-dihydro-3H-1,2,4-triazol-3-one] | 31 | 1.1 | 34.7 |
| CCOc1ccccc1-n1nc(Cn2nc(-c3ccc(Cl)cc3)n(C[C@H](O)C(F)(F)F)c2=O)nc1C(C)F (mixture of isomers) [Example 42, 5-(4-Chlorophenyl)-2-({1-(2-ethoxyphenyl)-5-[1-fluoroethyl]-1H-1,2,4-triazol-3-yl}methyl)-4-[(2S)-3,3,3-trifluoro-2-hydroxypropyl]-2,4-dihydro-3H-1,2,4-triazol-3-one] | 1.9 | 2.6 | 4.95 |
| CC(F)c1nc(Cn2nc(-c3ccc(Cl)cc3)n(C[C@H](O)C(F)(F)F)c2=O)nn1-c1cnccc1C(F)(F)F (single isomer, unassigned) [Example 9] | 1 | 7.1 | 7.05 |
| CC(F)(F)c1nc(Cn2nc(-c3ccc(Cl)cc3)n(C[C@H](O)C(F)(F)F)c2=O)nn1-c1ccccc1OC(F)(F)F [Example 61, 5-(4-Chlorophenyl)-2-({5-(1,1-difluoroethyl)-1-[2-(trifluoromethoxy)phenyl]-1H-1,2,4-triazol-3-yl}methyl)-4-[(2S)-3,3,3-trifluoro-2-hydroxypropyl]-2,4-dihydro-3H-1,2,4-triazol-3-one] | 4.15 | 10.7 | 44.5 |

More lines, now with the values ahead:

| IC50 (human V1a receptor) [nM] | ratio IC50 hV2/hV1a (human V1a receptor) | IC50 (human V2 receptor) [nM] | SMILES |
| --- | --- | --- | --- |
| 0.36 | 3.8 | 1.34 | CC(F)c1nc(Cn2nc(-c3ccc(Cl)cc3)n(C[C@H](O)C(F)(F)F)c2=O)nn1-c1ccccc1Cl (single isomer, unassigned) [Example 2] |
| 28.5 | 14.7 | 420 | CC(F)c1nc(Cn2nc(-c3ccc(Cl)cc3)n(C[C@H](O)C(F)(F)F)c2=O)nn1-c1ccccc1C#N (single isomer, unassigned) [Example 40] |
| 2.85 | 5.2 | 14.7 | CC(F)c1nc(Cn2nc(-c3ccc(Cl)cc3)n(C[C@H](O)C(F)(F)F)c2=O)nn1-c1ncccc1Cl (mixture of isomers) [Example 19, 5-(4-Chlorophenyl)-2-({1-(3-chloropyridin-2-yl)-5-[1-fluoroethyl]-1H-1,2,4-triazol-3-yl}methyl)-4-[(2S)-3,3,3-trifluoro-2-hydroxypropyl]-2,4-dihydro-3H-1,2,4-triazol-3-one] |
| 1.04 | 2.8 | 2.93 | CC(F)c1nc(Cn2nc(-c3ccc(Cl)cc3)n(C[C@H](O)C(F)(F)F)c2=O)nn1-c1c(F)cccc1Cl (mixture of isomers) [Example 44, 2-({1-(2-chloro-6-fluorophenyl)-5-[1-fluoroethyl]-1H-1,2,4-triazol-3-yl}methyl)-5-(4-Chlorophenyl)-4-[(2S)-3,3,3-trifluoro-2-hydroxypropyl]-2,4-dihydro-3H-1,2,4-triazol-3-one] |
